Experimental findings from patent publication US11485740B2, “Inhibitors of TRPC6” (Boehringer Ingelheim International GmbH, priority 2018, dated 2022) are described below.

Each structure is given as a SMILES string. pIC50: −log10 of the molar value.

This assay deals with T1, human TRPC6 (Homo sapiens, UniProt Q9Y210).
T1 construct: expressed in transfected cells
T1 sequence (Q9Y210 1-931): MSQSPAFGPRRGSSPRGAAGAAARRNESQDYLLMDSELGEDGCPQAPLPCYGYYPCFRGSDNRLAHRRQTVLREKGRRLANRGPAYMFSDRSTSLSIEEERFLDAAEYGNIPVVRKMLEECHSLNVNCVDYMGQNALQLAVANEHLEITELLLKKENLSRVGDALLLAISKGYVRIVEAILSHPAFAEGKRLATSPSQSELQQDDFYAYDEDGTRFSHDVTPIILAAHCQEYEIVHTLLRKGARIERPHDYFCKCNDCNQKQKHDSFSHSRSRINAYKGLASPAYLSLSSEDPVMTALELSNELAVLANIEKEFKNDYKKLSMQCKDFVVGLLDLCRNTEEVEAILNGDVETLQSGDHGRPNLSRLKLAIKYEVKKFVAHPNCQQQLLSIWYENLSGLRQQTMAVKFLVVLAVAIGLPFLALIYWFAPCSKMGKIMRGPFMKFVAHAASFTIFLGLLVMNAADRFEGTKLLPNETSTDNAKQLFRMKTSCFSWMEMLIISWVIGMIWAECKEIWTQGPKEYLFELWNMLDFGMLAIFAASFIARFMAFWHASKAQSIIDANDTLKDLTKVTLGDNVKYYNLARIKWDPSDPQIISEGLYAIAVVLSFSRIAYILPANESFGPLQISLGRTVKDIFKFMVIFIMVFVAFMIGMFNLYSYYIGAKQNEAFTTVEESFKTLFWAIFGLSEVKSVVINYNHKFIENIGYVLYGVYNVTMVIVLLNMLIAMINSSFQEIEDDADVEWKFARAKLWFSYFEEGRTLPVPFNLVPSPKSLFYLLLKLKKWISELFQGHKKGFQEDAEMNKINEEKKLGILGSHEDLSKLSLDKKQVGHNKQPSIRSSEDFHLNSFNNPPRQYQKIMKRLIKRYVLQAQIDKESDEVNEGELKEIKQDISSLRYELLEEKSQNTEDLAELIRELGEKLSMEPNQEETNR
Put plainly: High throughput screening assay: Fluo4/AM calcium fluorescence in HEK293/TREx cells expressing human TRPC6, agonist GSK1702934A (single concentration 10 μM and IC50 curves). It is filed as cell-based. The settings on record: antagonist effect against human TRPC6, 7 concentrations 20 μM to 0.027 μM, triplicate. An excerpt:
High Throughput Screening Assay
This screening assay measures human TRPC6 (transient receptor potential cation channel, subfamily C, member 6) ion channel activation via addition either of the commercially available DAG ligand analogue OAG (1-oleoyl-2-acetyl-sn-glycerol) or of the TRPC6 agonist 1-[1-(4,5,6,7,8-pentahydrocyclohepta[2,1-d]thiophen-2-ylcarbonyl)-4-piperidyl]-3-hydrobenzimidazol-2-one (GSK1702934A). The assay utilizes a fluorescent calcium sensor 4-(6-Acetoxymethoxy-2,7-difluoro-3-oxo-9-xanthenyl)-4′-methyl-2,2′-(ethylenedioxy)dianiline-N,N,N′,N′-tetraacetic acid tetrakis(acetoxymethyl) ester (Fluo4/AM) dye from Molecular Devices. Changes (increases) in intracellular calcium concentration as measured by the fluorescent signal increase provide a measurement of channel activity.
The commercially available HEK293/TREx line (Invitrogen) was stably transfected with a human TRPC6 construct and screened by conventional calcium imaging to find clones with human TRPC6 expression following stimulation with 1 μg/ml tetracycline. These cells were maintained in the growth medium recommended by the manufacturer supplemented with 100 μg/ml hygromycin to promote retention of the human TRPC6 construct. After growing to near confluency, cells were plated at a density of ^˜35,000 cells/well in 384 well CellBind plates (Corning) in the presence of 1 μg/ml tetracycline, and allowed to grow for 20-30 hrs. A nearly confluent monolayer resulted. Growth media was removed from the wells and cells were then loaded with […] Fluo4/AM diluted in Ringer's Solution (6.5 g NaCl, 0.42 g KCl, 0.25 g CaCl2) and 0.2 g of sodium bicarbonate; pH 7.4) supplemented with 1% Pluronic F-127 to a final concentration of 0.5 μM and incubated for 60 min, at room temperature. Dye solution was then removed from the cells by inverting plates with a sharp flick, and replaced with 25 μl Ringer's. Following ^˜0.5 hour for recovery from loading, cells were assayed using the Hamamatsu FDSS 6000 system, which permitted illumination at 485 nm. Frames were acquired at a rate of 0.2 Hz. During the assay, the plates were continuously vortexed, with pipette mixing of wells following addition of each reagent. For the screening assay, 26 μl of a diluted compound stock (at 50 μM) was added to each well for 2 minutes following the collection of a short (4 frame) baseline. 13 μl of agonist solution consisting of 125 nM GSK1702934A diluted in high-Ca2+Ringer solution (containing 90 mM Ca2+) was then added to each well, achieving a final concentration of 20 mM Ca2+ and 10 μM test compound. Data was collected for ^˜3 minutes following addition of high Ca2+Ringer. The fluorescent intensity observed at a particular timepoint for each well was divided by the initial fluorescent intensity for that well and the overall response was determined by averaging the resulting fluorescent ratio of the last 4 frames acquired during the experiment excepting the final frame. Negative and Positive controls were included on each plate. Negative controls wells consisted of HEK293/TREx TRPC6 cells exposed to assay buffer and agonist solution, but no test compound. Positive control consisted of wells consisted of HEK293/TREx TRPC6 cells exposed to 25 μM 3-[(2-chlorophenoxy)methyl]phenyl piperidyl ketone (Chembridge) diluted in Ringer's solution and agonist solution. These controls defined zero percent and 100 percent block respectively, and intensity of each well was normalized to these values.
Compounds were tested in triplicate at all concentrations. Standard software was used to fit IC50 curves.
One may read the pIC50 as the IC50 on a negative log10 scale, so that one unit is a factor of ten. In the case of `COc1cc(C(=O)N2CCC(c3nnc(N)cc3OC)CC2)ncc1-c1ccccc1` [Compound 87, [4-(6-Amino-4-methoxy-pyridazin-3-yl)-piperidin-1-yl]-(4-methoxy-5-phenyl-pyridin-2-yl)-methanone], the pIC50 is 6.27.

Take `COc1cc(C(=O)N2CCC(c3ccc(N)nn3)CC2)ncc1-c1ccc(OC(F)(F)F)nc1` [Compound 48, [4-(6-Amino-pyridazin-3-yl)-piperidin-1-yl]-(4-methoxy-6′-trifluoromethoxy-[3,3′]bipyridinyl-6-yl)-methanone]: the negative logarithm of the IC50 (pIC50) was 6.89.

Turning to `COc1cc(C(=O)N2CCC(c3ccc(N)nn3)CC2)ncc1-c1ccc(C(F)(F)F)c(OC)c1` [Compound 25], the pIC50 is 6.47.

On to `COc1ccc(-c2cnc(C(=O)N3CCC(c4ccc(N)nn4)CC3)cc2OC)cc1` [Compound 28, [4-(6-Amino-pyridazin-3-yl)-piperidin-1-yl]-[4-methoxy-5-(4-methoxy-phenyl)-pyridin-2-yl]-methanone], for which the negative-log IC50 (pIC50) was 6.72.

In the case of `CCc1cc(C(=O)N2CCC(c3ccc(N)nn3)CC2)ccc1-c1ccc(C(F)(F)F)cc1` [Compound 70, [4-(6-Amino-pyridazin-3-yl)-piperidin-1-yl]-(2-ethyl-4′-trifluoromethyl-biphenyl-4-yl)-methanone], the pIC50 is 5.85.

Take `COc1cc(C(=O)N2CCC(c3ccc(N)nn3)CC2)ncc1-c1ccc(OC2CCCC2)cc1` [Compound 23, [4-(6-Amino-pyridazin-3-yl)-piperidin-1-yl]-[5-(4-cyclopentyloxy-phenyl)-4-methoxy-pyridin-2-yl]-methanone]: the pIC50 was 7.16.

Regarding `COc1cc(C(=O)N2CCC(c3ccc(N)nn3)CC2)ncc1-c1ccc(C(F)(F)F)cc1Cl` [Compound 24, [4-(6-Amino-pyridazin-3-yl)-piperidin-1-yl]-[5-(2-chloro-4-trifluoromethyl-phenyl)-4-methoxy-pyridin-2-yl]-methanone], the negative logarithm of the IC50 (pIC50) was 6.38.

For the compound `COc1cc(C(=O)N2CCC(c3ccc(N)nn3)CC2)ccc1-c1ccc(C(F)(F)F)nc1` [Compound 59, [4-(6-Amino-pyridazin-3-yl)-piperidin-1-yl]-[3-methoxy-4-(6-trifluoromethyl-pyridin-3-yl)-phenyl]-methanone], the negative-log IC50 (pIC50) is 6.19.

As for `COc1cc(C(=O)N2CCC(c3ccc(N)nn3)CC2)ncc1-c1ccc(OCC2CC2)c(Cl)c1` [Compound 18], the negative logarithm of the IC50 (pIC50) was 5.57.

Regarding `COc1cc(C(=O)N2CCC(c3ccc(N)nn3)CC2)ccc1-c1ccnc(C(F)(F)F)c1` [Compound 61, [4-(6-Amino-pyridazin-3-yl)-piperidin-1-yl]-[3-methoxy-4-(2-trifluoromethyl-pyridin-4-yl)-phenyl]-methanone], the pIC50 was 5.39.

Consider `COc1cc(C(=O)N2CCC(c3ccc(N)nn3)CC2)ccc1-c1ccc(O[C@H](C)C2CC2)nc1` [Compound 81, [4-(6-Amino-pyridazin-3-yl)-piperidin-1-yl]-{4-[6-((R)-1-cyclopropyl-ethoxy)-pyridin-3-yl]-3-methoxy-phenyl}-methanone], for which the negative logarithm of the IC50 (pIC50) was 6.66.

For `COc1cc(C(=O)N2CCN(c3cnc(N)cc3OC)C[C@@H]2[C@@H](C)O)ncc1-c1ccc(C(F)(F)F)cc1` [Compound 106, [(R)-4-(6-Amino-4-methoxy-pyridin-3-yl)-2-((R)-1-hydroxy-ethyl)piperazin-1-yl]-[4-methoxy-5-(4-trifluoromethyl-phenyl)-pyridin-2-yl]-methanone], the pIC50 is 6.36.

Take `COc1cc(C(=O)N2CCN(c3ccc(N)nc3)[C@H](C)C2)ccc1-c1ccc(C(F)(F)F)cc1` [Compound 114, [(R)-4-(6-Amino-pyridin-3-yl)-3-methyl-piperazin-1-yl]-(2-methoxy-4′-trifluoromethyl-biphenyl-4-yl)-methanone]: the pIC50 was 7.17.

In the case of `COc1cc(C(=O)N2CCC(c3ccc(N)nn3)CC2)ccc1-c1ccc(OCC2CC2)nc1` [Compound 82, [4-(6-Amino-pyridazin-3-yl)-piperidin-1-yl]-[4-(6-cyclopropylmethoxy-pyridin-3-yl)-3-methoxy-phenyl]-methanone], the pIC50 was 6.47.

On to `COc1cc(C(=O)N2CCN(c3ccc(N)nc3)C[C@@H]2CO)ncc1-c1ccccc1` [Compound 91, [(R)-4-(6-Amino-pyridin-3-yl)-2-hydroxymethyl-piperazin-1-yl]-(4-methoxy-5-phenyl-pyridin-2-yl)-methanone], for which the negative-log IC50 (pIC50) was 6.52.

`COc1cc(C(=O)N2CCN(c3cnc(N)cc3OC)CC2)ncc1-c1ccc(C(F)(F)F)cc1` [Compound 103, [4-(6-Amino-4-methoxy-pyridin-3-yl)-piperazin-1-yl]-[4-methoxy-5-(4-trifluoromethyl-phenyl)-pyridin-2-yl]-methanone]: the pIC50 was 7.57.

On to `COc1nc(C(=O)N2CCC(c3ccc(N)nn3)CC2)ccc1-c1ccc(C(F)(F)F)cc1` [Compound 64, [4-(6-Amino-pyridazin-3-yl)-piperidin-1-yl]-[6-methoxy-5-(4-trifluoromethyl-phenyl)-pyridin-2-yl]-methanone], for which the pIC50 was 5.89.

With `COc1cc(C(=O)N2CCC(c3ccc(N)nn3)CC2)ccc1-c1ccc(OCC2CC2(C)C)nc1` (stereo not drawn) [Compound 77, [4-(6-Amino-pyridazin-3-yl)-piperidin-1-yl]-{4-[6-(2,2-dimethyl-cyclopropylmethoxy)-pyridin-3-yl]-3-methoxy-phenyl}-methanone], the negative-log IC50 (pIC50) was 6.80.

For the compound `COc1cc(C(=O)N2CCN(c3cnc(N)cc3OC)C[C@H]2CO)ncc1-c1ccc(F)cc1` [Compound 102, [(S)-4-(6-Amino-4-methoxy-pyridin-3-yl)-2-hydroxymethyl-piperazin-1-yl]-[5-(4-fluoro-phenyl)-4-methoxy-pyridin-2-yl]-methanone], the negative logarithm of the IC50 (pIC50) is 6.08.

On to `COc1cc(C(=O)N2CCC(c3ccc(N)nn3)CC2)ncc1-c1ccc2c(c1)OCCO2` [Compound 22, [4-(6-Amino-pyridazin-3-yl)-piperidin-1-yl]-[5-(2,3-dihydro-benzo[l ,4]dioxin-6-yl)-4-methoxy-pyridin-2-yl]-methanone], for which the pIC50 is 6.37.

For the compound `COc1cc(C(=O)N2CCC(c3ccc(N)nn3)CC2)ncc1-c1ccc(OCC(F)(F)F)cc1` [Compound 29, [4-(6-Amino-pyridazin-3-yl)-piperidin-1-yl]-{4-methoxy-5-[4-(2,2,2-trifluoro-ethoxy)-phenyl]-pyridin-2-yl}-methanone], the negative logarithm of the IC50 (pIC50) was 6.96.
